# Where “and” joins values, the source holds several entries; their conditions need not be identical. Equal values may be shown once.
# Test system: 324938-238-R-J1-PDC complex spheroids viability
# Test: Anticancer human tumor 324938-238-R-J1-PDC patient-derived bladder carcinoma cell line growth inhibition [CLK]
# Settings: for viability, T/C: stronger effect = lower value
# Summary of the method: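 Multi-cell-type spheroids combined patient-derived tumor cells with HUVEC endothelial cells and human mesenchymal stem cells. Paired agents were dosed in half-log steps down from about clinical Cmax, or from 10 microM where Cmax was unknown.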
# 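Note: viability read after seven days of drug exposure.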
# 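Throughout, for viability, T/C: 100% = DMSO vehicle control wells.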
smiles,measurement,setting,value
COC1C=CCC(C)C(C)S(=O)(=O)NC(=O)c2ccc3c(c2)N(CC2CCC21)CC1(CCCc2cc(Cl)ccc21)CO3 (stereo unspecified),"viability, T/C",compound 0.0316 µM,73.8% and 71.3%
same,"viability, T/C",compound 0.1 µM,78.3% and 65.3%
same,"viability, T/C",compound 0.316 µM,39.4% and 28.4%
same,"viability, T/C",compound 1 µM,21% and 21.4%
same,"viability, T/C",compound 3.16 µM,17.9% and 14.6%
same,"viability, T/C",compound 10 µM,10.5% and 7.78%
same,IC50,curve of compound,227 nM and 160 nM
COc1cccc2c1C(=O)c1c(O)c3c(c(O)c1C2=O)CC(O)(C(=O)CO)CC3OC1CC(N)C(O)C(C)O1 (stereo unspecified),"viability, T/C",compound 0.0316 µM,18.6% and 20.6%
same,"viability, T/C",compound 0.1 µM,12.3% and 18%
same,"viability, T/C",compound 0.316 µM,7.21% and 8.55%
same,"viability, T/C",compound 1 µM,1.1% and 0.74%
same,"viability, T/C",compound 3.16 µM,0.07% and 0.13%
same,"viability, T/C",compound 10 µM,0.18% and 0.15%
same,IC50,curve of compound,< 31.6 nM
C=C(F)C(=O)N1CCN(c2nc(OCC3CCCN3C)nc3c2CCN(c2cccc4cccc(Cl)c24)C3)CC1CC#N (stereo unspecified) + CNC(=O)c1ccc(Nc2nc(OC3CCCC3)c3c(-c4ccc5nc(C)oc5c4)c[nH]c3n2)c(OC)c1,IC50,"curve of first compound, second compound 0.0316 µM",2360 nM
same,IC50,"curve of first compound, second compound 0.1 µM",< 31.6 nM
same,IC50,"curve of first compound, second compound 0.316 µM",< 31.6 nM
same,IC50,"curve of first compound, second compound 1 µM",< 31.6 nM
same,IC50,"curve of first compound, second compound 3.16 µM",< 31.6 nM
same,IC50,"curve of first compound, second compound 10 µM",< 31.6 nM
same,"viability, T/C","second compound 0.0316 µM, first compound 0.0316 µM",89%
same,"viability, T/C","second compound 0.0316 µM, first compound 0.1 µM",82.6%
same,"viability, T/C","second compound 0.0316 µM, first compound 0.316 µM",83.2%
same,"viability, T/C","second compound 0.0316 µM, first compound 1 µM",75.7%
same,"viability, T/C","second compound 0.0316 µM, first compound 3.16 µM",41.3%
same,"viability, T/C","second compound 0.0316 µM, first compound 10 µM",0.18%
same,"viability, T/C","second compound 0.1 µM, first compound 0.0316 µM",23.1%
same,"viability, T/C","second compound 0.1 µM, first compound 0.1 µM",24.9%
same,"viability, T/C","second compound 0.1 µM, first compound 0.316 µM",25.2%
same,"viability, T/C","second compound 0.1 µM, first compound 1 µM",23.1%
same,"viability, T/C","second compound 0.1 µM, first compound 3.16 µM",24.9%
same,"viability, T/C","second compound 0.1 µM, first compound 10 µM",0.17%
same,"viability, T/C","second compound 0.316 µM, first compound 0.0316 µM",16.2%
same,"viability, T/C","second compound 0.316 µM, first compound 0.1 µM",16.2%
same,"viability, T/C","second compound 0.316 µM, first compound 0.316 µM",17.7%
same,"viability, T/C","second compound 0.316 µM, first compound 1 µM",20.2%
same,"viability, T/C","second compound 0.316 µM, first compound 3.16 µM",16.7%
same,"viability, T/C","second compound 0.316 µM, first compound 10 µM",0.14%
same,"viability, T/C","second compound 1 µM, first compound 0.0316 µM",18%
same,"viability, T/C","second compound 1 µM, first compound 0.1 µM",17%
same,"viability, T/C","second compound 1 µM, first compound 0.316 µM",15.3%
same,"viability, T/C","second compound 1 µM, first compound 1 µM",17.6%
same,"viability, T/C","second compound 1 µM, first compound 3.16 µM",16.4%
same,"viability, T/C","second compound 1 µM, first compound 10 µM",0.16%
same,"viability, T/C","second compound 3.16 µM, first compound 0.0316 µM",17.5%
same,"viability, T/C","second compound 3.16 µM, first compound 0.1 µM",15.3%
same,"viability, T/C","second compound 3.16 µM, first compound 0.316 µM",14.6%
same,"viability, T/C","second compound 3.16 µM, first compound 1 µM",16.4%
same,"viability, T/C","second compound 3.16 µM, first compound 3.16 µM",14.5%
same,"viability, T/C","second compound 3.16 µM, first compound 10 µM",0.17%
same,"viability, T/C","second compound 10 µM, first compound 0.0316 µM",16.7%
same,"viability, T/C","second compound 10 µM, first compound 0.1 µM",16.8%
same,"viability, T/C","second compound 10 µM, first compound 0.316 µM",15.5%
same,"viability, T/C","second compound 10 µM, first compound 1 µM",18.6%
same,"viability, T/C","second compound 10 µM, first compound 3.16 µM",14.3%
same,"viability, T/C","second compound 10 µM, first compound 10 µM",0.3%

# Reference: PubChem BioAssay AID2060621 (Molecular Pharmacology Branch, DTP, NCI, 2025)
